Mutagenic call data for 2 compounds are collected here from PubChem BioAssay AID1259407 (Chemical Carcinogenesis Research Information System (CCRIS), 2018).

Calls of active or inactive are those of the source. How the calls were made is not given here.

The data set concerns CCRIS mutagenicity, Ames/micronucleus/aberration tests. In words: CCRIS mutagenicity studies.
Where [1] appears, read: Test System: AMES SALMONELLA TYPHIMURIUM, Strain/Indicator: TA98, Metabolic Activation: NONE, Method: PREINCUBATION
Setting [2] is: Test System: AMES SALMONELLA TYPHIMURIUM, Strain/Indicator: TA100, Metabolic Activation: NONE, Method: PREINCUBATION
The mark [3] stands for this setting: Test System: AMES SALMONELLA TYPHIMURIUM, Strain/Indicator: TA1535, Metabolic Activation: NONE, Method: PREINCUBATION
The mark [4] stands for this setting: Test System: AMES SALMONELLA TYPHIMURIUM, Strain/Indicator: TA1537, Metabolic Activation: NONE, Method: PREINCUBATION

In the case of `O=C1CCCO1`, the mutagenic call is, setting by setting: (End Point: IN VITRO CHROMOSOMAL ABERRATIONS, Test System: CHO CELLS, Metabolic Activation: NONE) “inactive; negative”; (End Point: IN VITRO CHROMOSOMAL ABERRATIONS, Test System: CHO CELLS, Metabolic Activation: RAT, LIVER, S-9, AROCLOR 1254) “active; positive”; (Test System: AMES SALMONELLA TYPHIMURIUM, Strain/Indicator: TA98, Metabolic Activation: HAMSTER, LIVER, S-9, AROCLOR 1254 (10%), Method: PREINCUBATION) “inactive; negative”; under setting [1], “inactive; negative”; (Test System: AMES SALMONELLA TYPHIMURIUM, Strain/Indicator: TA98, Metabolic Activation: RAT LIVER S-9, PHENOBARBITAL AND BETA-NAPHTHOFLAVONE, Method: PREINCUBATION) “inactive; negative”; (Test System: AMES SALMONELLA TYPHIMURIUM, Strain/Indicator: TA98, Metabolic Activation: RAT, LIVER, S-9, AROCLOR 1254 (10%), Method: PREINCUBATION) “inactive; negative”. Besides, the mutagenic call by setting is: (Test System: AMES SALMONELLA TYPHIMURIUM, Strain/Indicator: TA98, Metabolic Activation: RAT, LIVER, S-9, AROCLOR 1254, Method: PREINCUBATION) “inactive; negative”; (Test System: AMES SALMONELLA TYPHIMURIUM, Strain/Indicator: TA100, Metabolic Activation: HAMSTER, LIVER, S-9, AROCLOR 1254 (10%), Method: PREINCUBATION) “inactive; negative”; under setting [2], “inactive; negative”; (Test System: AMES SALMONELLA TYPHIMURIUM, Strain/Indicator: TA100, Metabolic Activation: RAT LIVER S-9, PHENOBARBITAL AND BETA-NAPHTHOFLAVONE, Method: PREINCUBATION) “inactive; negative”; (Test System: AMES SALMONELLA TYPHIMURIUM, Strain/Indicator: TA100, Metabolic Activation: RAT, LIVER, S-9, AROCLOR 1254 (10%), Method: PREINCUBATION) “inactive; negative”; (Test System: AMES SALMONELLA TYPHIMURIUM, Strain/Indicator: TA100, Metabolic Activation: RAT, LIVER, S-9, AROCLOR 1254, Method: PREINCUBATION) “inactive; negative”. The mutagenic call runs as follows: (Test System: AMES SALMONELLA TYPHIMURIUM, Strain/Indicator: TA102, Metabolic Activation: NONE, Method: PREINCUBATION) “inactive; negative”; (Test System: AMES SALMONELLA TYPHIMURIUM, Strain/Indicator: TA102, Metabolic Activation: RAT LIVER S-9, PHENOBARBITAL AND BETA-NAPHTHOFLAVONE, Method: PREINCUBATION) “inactive; negative”; (Test System: AMES SALMONELLA TYPHIMURIUM, Strain/Indicator: TA102, Metabolic Activation: RAT, LIVER, S-9, AROCLOR 1254, Method: PREINCUBATION) “inactive; negative”; (Test System: AMES SALMONELLA TYPHIMURIUM, Strain/Indicator: TA104, Metabolic Activation: NONE, Method: PREINCUBATION) “inactive; negative”; (Test System: AMES SALMONELLA TYPHIMURIUM, Strain/Indicator: TA104, Metabolic Activation: RAT LIVER S-9, PHENOBARBITAL AND BETA-NAPHTHOFLAVONE, Method: PREINCUBATION) “inactive; negative”; (Test System: AMES SALMONELLA TYPHIMURIUM, Strain/Indicator: TA1535, Metabolic Activation: HAMSTER, LIVER, S-9, AROCLOR 1254 (10%), Method: PREINCUBATION) “inactive; negative”. Besides, the mutagenic call runs as follows: under setting [3], “inactive; negative”; (Test System: AMES SALMONELLA TYPHIMURIUM, Strain/Indicator: TA1535, Metabolic Activation: RAT LIVER S-9, PHENOBARBITAL AND BETA-NAPHTHOFLAVONE, Method: PREINCUBATION) “inactive; negative”; (Test System: AMES SALMONELLA TYPHIMURIUM, Strain/Indicator: TA1535, Metabolic Activation: RAT, LIVER, S-9, AROCLOR 1254 (10%), Method: PREINCUBATION) “inactive; negative”; (Test System: AMES SALMONELLA TYPHIMURIUM, Strain/Indicator: TA1537, Metabolic Activation: HAMSTER, LIVER, S-9, AROCLOR 1254 (10%), Method: PREINCUBATION) “inactive; negative”; under setting [4], “inactive; negative”; (Test System: AMES SALMONELLA TYPHIMURIUM, Strain/Indicator: TA1537, Metabolic Activation: RAT LIVER S-9, PHENOBARBITAL AND BETA-NAPHTHOFLAVONE, Method: PREINCUBATION) “inactive; negative”. The mutagenic call runs as follows: (Test System: AMES SALMONELLA TYPHIMURIUM, Strain/Indicator: TA1537, Metabolic Activation: RAT, LIVER, S-9, AROCLOR 1254 (10%), Method: PREINCUBATION) “inactive; negative”; (Test System: E.COLI, Strain/Indicator: WP2UVRA, Metabolic Activation: NONE, Method: PREINCUBATION) “inactive; negative”; (Test System: E.COLI, Strain/Indicator: WP2UVRA, Metabolic Activation: RAT LIVER S-9, PHENOBARBITAL AND BETA-NAPHTHOFLAVONE, Method: PREINCUBATION) “inactive; negative”; (Test System: E.COLI, Strain/Indicator: WP2UVRA\PKM101, Metabolic Activation: NONE, Method: PREINCUBATION) “inactive; negative”; (Test System: E.COLI, Strain/Indicator: WP2UVRA\PKM101, Metabolic Activation: RAT LIVER S-9, PHENOBARBITAL AND BETA-NAPHTHOFLAVONE, Method: PREINCUBATION) “inactive; negative”.

For the compound `O=C(OCC(COC(=O)c1ccccc1)(COC(=O)c1ccccc1)COC(=O)c1ccccc1)c1ccccc1`, the mutagenic call is, setting by setting: (Test System: AMES SALMONELLA TYPHIMURIUM, Strain/Indicator: TA97, Metabolic Activation: HAMSTER, LIVER, S-9, AROCLOR 1254 (10 OR 30%), Method: PREINCUBATION) “inactive; negative”; (Test System: AMES SALMONELLA TYPHIMURIUM, Strain/Indicator: TA97, Metabolic Activation: NONE, Method: PREINCUBATION) “inactive; negative”; (Test System: AMES SALMONELLA TYPHIMURIUM, Strain/Indicator: TA97, Metabolic Activation: RAT, LIVER, S-9, AROCLOR 1254 (10 OR 30%), Method: PREINCUBATION) “inactive; negative”; (Test System: AMES SALMONELLA TYPHIMURIUM, Strain/Indicator: TA98, Metabolic Activation: HAMSTER, LIVER, S-9, AROCLOR 1254 (10 OR 30%), Method: PREINCUBATION) “inactive; negative”; under setting [1], “inactive; negative”; (Test System: AMES SALMONELLA TYPHIMURIUM, Strain/Indicator: TA98, Metabolic Activation: RAT, LIVER, S-9, AROCLOR 1254 (10 OR 30%), Method: PREINCUBATION) “inactive; negative”. Besides, the mutagenic call by setting is: (Test System: AMES SALMONELLA TYPHIMURIUM, Strain/Indicator: TA100, Metabolic Activation: HAMSTER, LIVER, S-9, AROCLOR 1254 (10 OR 30%), Method: PREINCUBATION) “inactive; negative”; under setting [2], “inactive; negative”; (Test System: AMES SALMONELLA TYPHIMURIUM, Strain/Indicator: TA100, Metabolic Activation: RAT, LIVER, S-9, AROCLOR 1254 (10 OR 30%), Method: PREINCUBATION) “inactive; negative”; (Test System: AMES SALMONELLA TYPHIMURIUM, Strain/Indicator: TA1535, Metabolic Activation: HAMSTER, LIVER, S-9, AROCLOR 1254 (10 OR 30%), Method: PREINCUBATION) “inactive; negative”; under setting [3], “inactive; negative”; (Test System: AMES SALMONELLA TYPHIMURIUM, Strain/Indicator: TA1535, Metabolic Activation: RAT, LIVER, S-9, AROCLOR 1254 (10 OR 30%), Method: PREINCUBATION) “inactive; negative”. The mutagenic call (Test System: AMES SALMONELLA TYPHIMURIUM, Strain/Indicator: TA1537, Metabolic Activation: HAMSTER, LIVER, S-9, AROCLOR 1254 (30%), Method: PREINCUBATION) was “inactive; negative”; the mutagenic call under setting [4] is “inactive; negative”; the mutagenic call (Test System: AMES SALMONELLA TYPHIMURIUM, Strain/Indicator: TA1537, Metabolic Activation: RAT, LIVER, S-9, AROCLOR 1254 (30%), Method: PREINCUBATION) was “inactive; negative”.
